Laboratory results as given in US9801840B1, “Pharmaceutical composition and use thereof” (priority 2016, dated 2017).
Blank lines part the entries; values can stand above or below the compound they belong to.

Assays:
[1] = Cytotoxicity assay (MTT); format: cell-based; conditions: human, Huh7 cells (HCC cell line), Huh7, 24 hours
Procedure: (§1) The HCC cell lines: Huh7, HepG2 and Hep3B were obtained from Japanese Collection of Research Bioresources (National Institute of Health Sciences; Japan, JCRB) and maintained in Dulbecco's Modified Eagle's Medium-High Glucose (Invitrogen) medium with 10% fetal bovine serum (FBS), 2 mM L-glutamine (Invitrogen), and 100 μg/mL penicillin-streptomycin (Invitrogen). Cells were cultured in a humidified atmosphere in 5% CO2 at 37° C. A well-known cytotoxicity assays in the art, for example, the assay described by Wang et al. can be performed to study the cytotoxicity of the pharmaceutical composition provided by the present invention. […] The number of viable cells was determined by MTT assay.

[2] = test system: Hep3B cell lines; test: Cytotoxicity assay (MTT); format: cell-based; conditions: 24 hours
Procedure: as §1

[3] = test system: HepG2 cell lines; test: Cytotoxicity assay (MTT); format: cell-based; conditions: HepG2, 24 hours
Procedure: as §1

[4] = test system: Hep3B cell lines; test: Transwell migration assay; format: cell-based; conditions: 1-16 μM, 16 hours
Procedure: (§2) Then, the cells were seeded into Transwell inserts (8 μm pore; BD Biosciences). The mediums were incubated for 16 hours, and the migrated cells were fixed, stained with crystal violet, and quantified.
(§3) Except for the compound represented by formula (1), the pharmaceutical composition can further comprises at least one known anticancer agent. […] The software was used to estimate the combination index (CI) and Fa (fraction affected by drugs) and to interpret the combined effect of drugs. CI<1, CI=1, and CI>1 respectively indicate synergistic, additive, and antagonistic effects.

[5] = test system: HepG2 cell lines; test: Transwell migration assay; format: cell-based; conditions: HepG2, 1-16 μM, 16 hours
Procedure: as §2, §3

[6] = test system: Huh7 cell lines; test: Transwell migration assay; format: cell-based
Procedure: as §2, §3

[7] = test system: VEGFR2; test: Immunoprecipitation and Western blot analysis, Huh7 cell lines; format: cell-based; conditions: Huh7, 15 mins treatment, vs control
Procedure: The lysates were then sonicated and centrifuged. The supernatant was kept and incubated with anti-VEGFR1 antibody, anti-VEGFR2 antibody, and anti-VEGFR3 antibody (Santa Cruz Biotechnology, Inc.) overnight at 4° C. The immune-complexes were washed and eluted, and then analyzed by Western blotting.

[8] = test system: Src; test: as above; format: cell-based; conditions: Huh7, 15 mins treatment
[9] = test system: FAK (Tyr397); test: as above; format: cell-based; conditions: Huh7, 15 mins treatment
[10] = target: T1, VEGFR2 (kinase insert domain receptor, KDR) (Homo sapiens, UniProt P35968); test: ADP-Glo kinase activity assay; format: biochemical; conditions: 10 μM ATP, read-out: concentration inhibiting VEGFR2 activity by 50%
T1 construct: purchased Promega V2681
T1 sequence (P35968 20-1356): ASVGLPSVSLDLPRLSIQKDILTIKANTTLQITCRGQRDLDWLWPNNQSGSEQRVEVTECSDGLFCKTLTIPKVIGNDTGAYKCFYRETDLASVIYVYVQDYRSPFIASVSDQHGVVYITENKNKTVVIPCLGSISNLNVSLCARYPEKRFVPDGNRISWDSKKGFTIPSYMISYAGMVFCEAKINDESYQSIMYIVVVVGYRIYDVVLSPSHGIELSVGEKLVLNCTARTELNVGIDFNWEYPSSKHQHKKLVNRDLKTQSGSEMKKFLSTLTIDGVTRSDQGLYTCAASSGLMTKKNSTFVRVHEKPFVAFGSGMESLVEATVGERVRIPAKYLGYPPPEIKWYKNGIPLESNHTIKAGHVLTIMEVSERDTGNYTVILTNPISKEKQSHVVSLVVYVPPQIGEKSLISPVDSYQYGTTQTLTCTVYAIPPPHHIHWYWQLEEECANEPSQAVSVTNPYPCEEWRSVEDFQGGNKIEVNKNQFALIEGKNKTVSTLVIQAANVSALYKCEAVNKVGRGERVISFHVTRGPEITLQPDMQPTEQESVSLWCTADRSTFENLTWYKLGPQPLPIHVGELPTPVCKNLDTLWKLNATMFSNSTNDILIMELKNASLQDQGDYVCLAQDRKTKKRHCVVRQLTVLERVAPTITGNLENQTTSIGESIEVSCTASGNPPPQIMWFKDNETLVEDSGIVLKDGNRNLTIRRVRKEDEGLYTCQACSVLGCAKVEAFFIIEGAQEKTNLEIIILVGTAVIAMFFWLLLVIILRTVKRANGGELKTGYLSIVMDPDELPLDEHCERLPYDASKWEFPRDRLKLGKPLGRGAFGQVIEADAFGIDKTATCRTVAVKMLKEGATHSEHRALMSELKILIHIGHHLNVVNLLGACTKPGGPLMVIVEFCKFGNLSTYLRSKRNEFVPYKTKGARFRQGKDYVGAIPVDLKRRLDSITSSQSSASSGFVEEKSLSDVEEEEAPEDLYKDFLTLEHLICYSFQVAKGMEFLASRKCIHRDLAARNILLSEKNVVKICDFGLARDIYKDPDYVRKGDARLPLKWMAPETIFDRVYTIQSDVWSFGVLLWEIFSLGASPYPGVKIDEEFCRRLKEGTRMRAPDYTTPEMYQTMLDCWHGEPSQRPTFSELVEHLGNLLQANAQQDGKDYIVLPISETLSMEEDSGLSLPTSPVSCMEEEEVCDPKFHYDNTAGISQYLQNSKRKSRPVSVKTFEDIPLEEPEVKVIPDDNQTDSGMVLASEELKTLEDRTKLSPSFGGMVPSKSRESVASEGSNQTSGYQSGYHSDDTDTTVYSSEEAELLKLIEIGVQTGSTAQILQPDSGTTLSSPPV
Procedure: Briefly, CA was first diluted with a kinase reaction buffer solution at a 1:2 dilution ratio. Three nanograms of kinase insert domain receptor (KDR, #V2681, Promega) were added and incubated for 10 mins. Then, 0.1 μg/μL substrate and 10 μM ATP were added and incubated for 1 hour at room temperature. Next, 25 μL of ADP-Glo reagent was added to the mixture and incubated at room temperature for 40 mins. Finally, 50 μL of a kinase detection reagent was added to introduce luciferase and samples were measured.

[11] = test system: cdc42; test: Rho GTPase activity assay (GST pull-down, Western blot), Huh7 cell lines; format: cell-based; conditions: Huh7, 6 hours
Procedure: Huh7 cell lines were cultured by the method described in Example 2 and treated with 0.1% DMSO (control) or CA for 6 hours and then collected. After the Huh7 cell lines were lysed, the cell lysates (500 μg) were combined with purified GST fusion protein which has conjugated with Rac1, RhoA, or cdc42 binding domain (PAK-PBD for Rac1 and cdc42, Raf-RBD for RhoA) and incubated at 4° C. overnight. The immune-complex was precipitated and then centrifuged at 14,000 rpm for 30 mins. The samples were washed with RIPA buffer solution, boiled with SDS sample buffer solution, and analyzed by Western blot analysis.

[12] = test system: Huh7 cell lines; test: G-actin/F-actin activity assay; format: cell-based; conditions: Huh7, 6 hours, vs control
Procedure: Actin activity assay can be conducted by known methods, for example, the method described in Shum et al. (2011). Briefly, Huh7 cell lines were cultured by the method described in Example 2 and treated with 0.1% DMSO (control) or CA for 6 hours and incubated in stabilizing buffer (1% Triton X-100, 1 μg phalloidin, and protease inhibitor cocktail) at room temperature for 5 mins. Cell lysates were collected, followed by centrifugation at 100,000×g at 37° C. for 1 hour. The supernatant was removed and saved as the G-actin fraction. The pellet was washed twice with PBS and dissolved in dissolving buffer solution (1% Triton X-100, 2% SDS, and protease inhibitor cocktail) by sonication, the mixture was put on ice for 1 h, and saved as the F-actin fraction.

[13] = test system: Huh7 cell lines; test: Confocal microscopy analysis of p-FAK (Tyr397) and F-actin; format: cell-based; conditions: Huh7, 6 hour
Procedure: Huh7 cell lines cultured by the method described in Example 2 were seeded on a 22×22 cover slip and treated with 0.1% DMSO (control) or CA for 6 hour. The cells were washed, fixed, and permeabilized with 0.25% Triton X-100 for 10 mins. Next, the cover slips were incubated with p-FAK (Tyr397) primary antibody overnight, and then stained with Alexa488 (anti-rabbit) and Alexa568-phallodin (20 mU/mL) for 1 hour in darkness. Finally, the samples were counterstained for nuclei with DAPI (10 ng/mL) for 10 mins. The images were captured and analyzed using the Leica TCS SP5 Spectral Confocal System. The actin filament intensity was measured by ImageJ (NIH) and calculated by the following formula described by Bennett et al. (2013): Corrected total cell fluorescence (CTCF)=Integrated Density−(Area of selected cell×Mean fluorescence of background readings).

[14] = test system: Huh7 cell lines; test: Antitumor response in vivo, Huh7 xenograft; design: species or system mice; conditions: 5 mg/kg/day intraperitoneal
Procedure: All animal experiments were conducted according to the guidelines approved by the Institutional Animal Care and Use Committees of the College of Medicine, National Taiwan University and National Taiwan Normal University. The study was approved by the Animal Care and Use Committees of the College of Medicine, National Taiwan University and National Taiwan Normal University. Male NOD/SCID mice (4-6 weeks old) (obtained from BioLASCO Taiwan Co., Ltd) were housed into individually-ventilated cages with free access to food and drinking water. […] The tumor volume was calculated by the following equation: tumor volume(mm^3)=(length [mm])×(width [mm])^2×0.5.

[15] = test system: p-FAK (Tyr397); test: Immunohistochemistry of excised xenograft tumors; format: in vivo; conditions: HCC xenograft mice, CA 5 mg/kg/day
From the text: (§4) Tumor samples obtained from experiment 4-1 were fixed in 10% […], embedded in paraffin, and sectioned. The tissue sections were then subjected to immunohistochemical staining with the Novolink Polymer Detection System (Leica Biosystems). The sections were stained for p-VEGFR2 (Tyr951, Cell Signaling Technology), Ki-67 and p-FAK (Tyr397) (Santa Cruz Biotechnology), and the nuclei were counterstained with hematoxylin.

[16] = test system: p-VEGFR2 (Tyr951); test: Immunohistochemistry of excised xenograft tumors; format: in vivo; conditions: HCC xenograft mice, CA 5 mg/kg/day
From the text: as §4

[17] = test system: FAK; conditions: xenograft model
Procedure: To study the combinatorial effect of CA and sorafenib, Huh7 cell lines (5×10^6 cells) were suspended in 100 μL of Opti-MEM with matrigel-matrix, and injected subcutaneously into the flanks of each mouse. After one week, the mice were treated with 50 μL DMSO (control) and combined compounds by intraperitoneal injection (n=5 for each group) for 20 days.
At the end of the experiment, the mice were sacrificed. The tumors were excised, weighed, and fixed for further studies.

IC50 [10]: ~0.95 µM
IC50 ([11]; Homo sapiens, Huh-7, read-out: concentration reducing the activity of cdc42 by 50%): 2 µM
SMILES: C[C@H]1[C@H](C)CC[C@]2(C(=O)O)CC[C@]3(C)C(=CC[C@@H]4[C@@]5(C)C[C@@H](O)[C@H](O)C(C)(C)[C@@H]5CC[C@]43C)[C@H]12 [CA, corosolic acid]
IC50 at 24 h [1]: 50 µM
cytotoxicity [2]: lower cytotoxicity
cytotoxicity [3]: lower cytotoxicity
inhibition of migration [4]: effectively inhibited the migration
inhibition of migration [5]: effectively inhibited the migration
IC50 cytotoxicity/IC50 migration ([6]; HCC cell lines): ≥ 20
inhibition of migration ([6]; Huh7, 1-16 μM, 16 hours): effectively inhibited the migration
phosphorylation level of VEGFR2 [7]: lower
phosphorylation level of Src [8]: down-regulated
phosphorylation level of FAK (Tyr397) [9]: down-regulated
activated cdc42 [11]: significantly down-regulated
ratio of F-actin/G-actin (polymer/monomer) [12]: reduces
co-localization of phosphorylation of FAK (Tyr397) and F-actin on the filopodium [13]: decreases
reduction in tumor mass as compared with the control group ([14]; 21 days): 85%
volumes of the tumor ([14]; after 21-day treatment): 63±19 mm^3
phosphorylation of FAK in tumor (immunohistochemistry) [15]: reduced phosphorylation of both VEGFR2 and FAK significantly
phosphorylation of VEGFR2 in tumor (immunohistochemistry) [16]: reduced phosphorylation of both VEGFR2 and FAK significantly

SMILES: CNC(=O)c1cc(Oc2ccc(NC(=O)Nc3ccc(Cl)c(C(F)(F)F)c3)cc2)ccn1 [sorafenib]
phosphorylation level / activation of FAK kinase in the tumor in the mice [17]: didn't show any inhibitory effect

SMILES: C[C@H]1[C@H](C)CC[C@]2(C(=O)O)CC[C@]3(C)C(=CC[C@@H]4[C@@]5(C)CC[C@H](O)C(C)(C)[C@@H]5CC[C@]43C)[C@H]12 [ursolic acid, 3β-hydroxyurs-12-ursen-28-ic acid, reference compound]
inhibitory activity to cell migration (FIG. 2D comparison) ([6]; Huh7, CA vs sorafenib vs ursolic acid): did not show significant inhibitory activity
